Measured values from ChEMBL document CHEMBL1151666, “Novel Zaragozic Acids from Leptodontidium elatius” (J Nat Prod, 1996).

How the values were obtained:
[1] = target: T1, Squalene synthase (Homo sapiens, UniProt P37268); experiment: Inhibition of squalene synthase
T1 sequence (P37268 whole entry): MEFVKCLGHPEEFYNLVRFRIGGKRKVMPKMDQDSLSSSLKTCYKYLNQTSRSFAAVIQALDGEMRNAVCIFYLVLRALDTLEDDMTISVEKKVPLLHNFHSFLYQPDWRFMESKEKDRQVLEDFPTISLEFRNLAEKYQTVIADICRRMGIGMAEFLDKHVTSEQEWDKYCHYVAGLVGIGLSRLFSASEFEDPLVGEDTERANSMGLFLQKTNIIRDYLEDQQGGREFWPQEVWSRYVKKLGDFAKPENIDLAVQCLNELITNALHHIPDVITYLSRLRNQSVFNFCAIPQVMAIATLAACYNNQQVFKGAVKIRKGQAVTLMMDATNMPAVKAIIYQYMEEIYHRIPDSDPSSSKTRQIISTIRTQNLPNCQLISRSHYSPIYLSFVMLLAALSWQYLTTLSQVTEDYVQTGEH

[2] = target: T2, Squalene synthase (Rattus norvegicus, UniProt Q02769); experiment: Inhibition of rat squalene synthase
T2 sequence (Q02769 whole entry): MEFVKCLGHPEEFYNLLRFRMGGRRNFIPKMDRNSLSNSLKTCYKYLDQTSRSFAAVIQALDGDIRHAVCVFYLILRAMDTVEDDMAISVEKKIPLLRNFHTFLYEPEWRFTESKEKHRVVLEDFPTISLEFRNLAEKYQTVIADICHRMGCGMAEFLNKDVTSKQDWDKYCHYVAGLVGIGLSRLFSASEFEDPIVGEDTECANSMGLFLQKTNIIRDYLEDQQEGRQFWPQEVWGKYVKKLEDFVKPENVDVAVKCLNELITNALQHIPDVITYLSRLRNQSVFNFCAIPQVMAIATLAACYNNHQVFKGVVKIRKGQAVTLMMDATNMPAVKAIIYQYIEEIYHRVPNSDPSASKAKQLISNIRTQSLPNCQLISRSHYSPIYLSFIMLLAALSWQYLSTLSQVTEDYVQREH

**Q.** For `C[C@@H](CCCC[C@]12O[C@H](C(=O)O)[C@@](O)(C(=O)O)[C@](C(=O)O)(O1)[C@H](OC(=O)CC/C=C/[C@@H](C)CCCc1ccccc1)[C@H]2O)Cc1ccccc1`, which IC50 [1] is on record?
**A.** 0.2 nM

**Q.** Which results are given for `CC(=O)O[C@H](CCC[C@]12O[C@H](C(=O)O)[C@@](O)(C(=O)O)[C@](C(=O)O)(O1)[C@H](OC(=O)CC/C=C/[C@H](C)CCCc1ccccc1)[C@H]2O)[C@H](C)Cc1ccccc1` [ZARAGOZIC ACID C]?
**A.** Ki [2]: 0.045 nM; IC50 [1]: 0.3 nM

**Q.** Which IC50 [1] does the source give for `C[C@H](/C=C/CCC(=O)O[C@@H]1[C@@H](O)[C@@]2(CC/C=C/[C@H](C)CCCc3ccccc3)O[C@H](C(=O)O)[C@@](O)(C(=O)O)[C@]1(C(=O)O)O2)CCCc1ccccc1` [ZARAGOZIC ACID E] here?
**A.** 4 nM

**Q.** With `CCCCCCC[C@@H](CCC[C@]12O[C@H](C(=O)O)[C@@](O)(C(=O)O)[C@](C(=O)O)(O1)[C@H](OC(=O)CC/C=C/[C@@H](C)CCCc1ccccc1)[C@H]2O)OC(C)=O` [ZARAGOZIC ACID F] as the compound, how does the IC50 [1] read?
**A.** 2 nM
